Non-standard residues stand in square brackets, D forms with d. Residues, ends and D or L forms follow the SMILES beside them. No end group written: not given here. Pmp = N[C@@H](Cc1ccc(CP(=O)(O)O)cc1)C(=O)O; dPmp = N[C@H](Cc1ccc(CP(=O)(O)O)cc1)C(=O)O; pY = N[C@@H](Cc1ccc(OP(=O)(O)O)cc1)C(=O)O

One experiment concerns IRS-1/PI 3-kinase association. The experiment is described as follows: Inhibition of association of PI 3-kinase activity (CHO cell extract) with immobilized phosphorylated IRS-1. In kind it is biochemical. The following applies: dose-response studies. The procedure: Inhibiting interactions between IRS-1 and PI 3-kinase IRS-1 produced in a baculovirus expression system was adsorbed to anti-peptide (IRS-1) antibodies and phosphorylated by solubilized insulin receptors (which were then washed away). […] After incubation and additional washing, PI 3-kinase activity associated with the immobilized IRS-1 was determined as described, Auger et al. PI 3-kinase activity associated with IRS-1 only after phosphorylation by the insulin receptor. Various peptides were added during incubation of immobilized IRS-1 with the ChO cell extract (PI 3-kinase) to determine their ability to block association. Concentration dependent effects of phosphorylated vs. unphosphorylated middle T and IRS-1 […] YMXM sequences were determined. […] A detailed study of these effects is a major target of this proposal.
Regarding “pY628: phosphorylated form of IRS-1 YMXM sequence Y628 (SEQ ID NO: 26, Table 1) (RKGNGDG[pY]MPMSPKSV)”, the “ED50 for inhibition of IRS-1/PI 3-kinase association” value is not above 0.05 µM.

For the next experiment, the target named is T1, p85 SH2 domains (SH2/GST fusion protein) (Homo sapiens, UniProt P27986).
T1 construct: GST
T1 sequence (P27986 333-428 limits assumed): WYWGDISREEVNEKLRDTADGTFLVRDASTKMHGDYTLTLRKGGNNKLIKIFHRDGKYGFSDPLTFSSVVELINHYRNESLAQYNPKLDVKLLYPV
Description: Biospecific interaction analysis of binding to p85 SH2 domains. The following applies: isolated SH2 domains of PI 3-kinase p85; overview statement. The method, then: Therefore, mT-pY315 binding to p85 SH2 domains was analyzed using biospecific interaction analysis as previously described to obtain a more accurate estimate for KD. Series of data were obtained during real-time binding experiments with different concentrations of SH2/GST fusion protein (data not shown).
As for `CSCC[C@H](NC(=O)[C@@H]1CCCN1C(=O)[C@H](CCSC)NC(=O)[C@H](Cc1ccc(CP(=O)(O)O)cc1)NC(=O)[C@H](CCC(=O)O)NC(=O)[C@H](CCC(=O)O)NC(=O)[C@@H](N)CCC(=O)O)C(=O)N[C@@H](CCC(=O)O)C(=O)N[C@@H](CC(=O)O)C(=O)N[C@@H](CC(C)C)C(=O)N[C@@H](Cc1ccc(O)cc1)C(=O)O` [L-mT-Pmp315] (H-EEE[Pmp]MPMEDLY-OH), the Kd fell in the range of 0.01 to 0.02 µM.

In a further experiment the target is T2, N-terminal p85 SH2/GST fusion protein (Homo sapiens, UniProt P27986).
T2 construct: N-terminal p85 SH2/GST fusion proteins (100 nM)
T2 sequence (P27986 333-428 limits assumed): as above
The experiment is described as follows: biochemical. In kind it is binding.
Details: not given
The method, then: Peptide Binding to Isolated Glutathione S-Transferase/SH2 Domain Fusion Proteins was determined as follows. N-terminal p85 SH2/GST fusion proteins (100 nM) (Hu et al., 1992, Mol. Cell. Biol. 12:981-990), 35 fmol of HPLC-purified, [^125 I]Bolton-Hunter-treated phosphopeptide (67 nCi) and varying concentrations of unlabeled peptides were combined in 200 μl total volume of 20 mM tris-HCl, 250 mM NaCl, 0.1% bovine serum albumin, 10 mM dithiothreitol, pH 7.4. Glutathione-agarose (25 μl of a 1:4 aqueous slurry, Molecular Probes) was added and the samples were incubated at 22° C. for 4 h. Following centrifugation for 5 min at 12,000×g, supernatant solutions were removed by aspiration and [^125 I]radioactivity associated with the pellets was determined with a […].
Phosphopeptide and phosphonopeptide binding to p85 SH2 domains. To investigate the mechanism of phosphonopeptide inhibition of association direct binding to an isolated SH2 domain of the p85 of PI 3-kinase was analyzed. In the assay, tracer amounts of [^125 I]-labeled phosphopeptide, SH2 domain/GST fusion protein, and varying concentrations of unlabeled peptides were incubated together along with glutathione-agarose. […] ID50 values were determined as the concentration of unlabeled peptide required to inhibit 50% of specific [^125 I]phosphopeptide binding. […]
In the case of `CSCC[C@H](NC(=O)[C@@H]1CCCN1C(=O)[C@H](CCSC)NC(=O)[C@H](Cc1ccc(CP(=O)(O)O)cc1)NC(=O)[C@H](CCC(=O)O)NC(=O)[C@H](CCC(=O)O)NC(=O)[C@@H](N)CCC(=O)O)C(=O)N[C@@H](CCC(=O)O)C(=O)N[C@@H](CC(=O)O)C(=O)N[C@@H](CC(C)C)C(=O)N[C@@H](Cc1ccc(O)cc1)C(=O)O` [L-mT-Pmp315] (H-EEE[Pmp]MPMEDLY-OH), the IC50 turned out to be 7.2 µM.
On to `CSCC[C@H](NC(=O)[C@@H]1CCCN1C(=O)[C@H](CCSC)NC(=O)[C@@H](Cc1ccc(CP(=O)(O)O)cc1)NC(=O)[C@H](CCC(=O)O)NC(=O)[C@H](CCC(=O)O)NC(=O)[C@@H](N)CCC(=O)O)C(=O)N[C@@H](CCC(=O)O)C(=O)N[C@@H](CC(=O)O)C(=O)N[C@@H](CC(C)C)C(=O)N[C@@H](Cc1ccc(O)cc1)C(=O)O` [D-mT-Pmp315] (H-EEE[dPmp]MPMEDLY-OH), for which the IC50 amounted to 131 µM. This IC50 is about 18-fold higher than that of the compound before.

For a further experiment, the target named is T3, Rat PTPase 1B (Rattus norvegicus, UniProt P20417).
T3 construct: cloning the full-length cDNA into the bacterial expression vector, PKK233-2; made in house; host or cells: bacteria (vector PKK233-2)
T3 sequence (P20417 1-432): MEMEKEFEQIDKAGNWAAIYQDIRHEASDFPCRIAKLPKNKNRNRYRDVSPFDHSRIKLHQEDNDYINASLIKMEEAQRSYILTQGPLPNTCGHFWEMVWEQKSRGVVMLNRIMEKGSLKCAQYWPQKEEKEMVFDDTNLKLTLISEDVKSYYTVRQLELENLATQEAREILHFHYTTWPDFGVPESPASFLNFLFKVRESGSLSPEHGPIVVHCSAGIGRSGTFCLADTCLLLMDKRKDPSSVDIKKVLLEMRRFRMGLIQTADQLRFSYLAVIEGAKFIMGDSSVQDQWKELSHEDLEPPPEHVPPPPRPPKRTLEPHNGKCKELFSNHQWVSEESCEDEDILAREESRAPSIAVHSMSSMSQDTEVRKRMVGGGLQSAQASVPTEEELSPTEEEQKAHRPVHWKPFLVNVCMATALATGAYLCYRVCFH
The experiment is described as follows: PTPase 1B peptide dephosphorylation (Km) and inhibition (Ki). To be noted: Pmp and Pmp-peptides as inhibitors. In kind it is biochemical. The procedure:
The phosphopeptides were used as substrates of PTPase 1B, a single catalytic domain PTPase with a […] tissue distribution (Hunter et al., 1989, cell 58:1013). Rat PTPase 1B (Guan et al., 1990, Proc. Natl., Acad. Sci. USA 87:1501) was obtained by PCR and cloning the full-length cDNA into the bacterial expression vector, PKK233-2.
Sequence specificity for peptide dephosphorylation was observed, with apparent Km values ranging from <2 μM for the phospho-middle t sequence to >2 mM for pTyr itself (Table 3).
Several phosphono peptides were tested for the ability to inhibit PTPase 1B activity and KI values determined by methods known to those skilled in the art.
In turn, `CC[C@H](C)[C@H](NC(=O)[C@H](CC(=O)O)NC(=O)[C@@H](N)CCCNC(=N)N)C(=O)N[C@@H](Cc1ccc(CP(=O)(O)O)cc1)C(=O)N[C@@H](CCC(=O)O)C(=O)N[C@H](C(=O)N[C@@H](CC(=O)O)C(=O)N[C@@H](Cc1ccc(O)cc1)C(=O)N[C@@H](Cc1ccc(O)cc1)C(=O)N[C@@H](CCCNC(=N)N)C(=O)N[C@@H](CCCCN)C(=O)O)[C@@H](C)O` [IR1155-1165(L-Pmp1158), RDI[L-Pmp]ETDYYRK] (H-RDI[Pmp]ETDYYRK-OH; N-terminus assumed) came in with an inhibitory constant (Ki) of 30 µM.
Compound `CC[C@H](C)[C@H](NC(=O)[C@H](CC(=O)O)NC(=O)[C@@H](N)CCCNC(=N)N)C(=O)N[C@H](Cc1ccc(CP(=O)(O)O)cc1)C(=O)N[C@@H](CCC(=O)O)C(=O)N[C@H](C(=O)N[C@@H](CC(=O)O)C(=O)N[C@@H](Cc1ccc(O)cc1)C(=O)N[C@@H](Cc1ccc(O)cc1)C(=O)N[C@@H](CCCNC(=N)N)C(=O)N[C@@H](CCCCN)C(=O)O)[C@@H](C)O` [IR1155-1165(d-Pmp1158), RDI[D-Pmp]ETDYYRK] (H-RDI[dPmp]ETDYYRK-OH; N-terminus assumed) gave a Ki of 30 µM.
Still for that read-out and setting: next, “RDIPmpETDPmpPmpRK [IR1155-1165(D,L-Pmp3)]”: less than 2 µM.

The same experiment, now with this note: apparent Km, phosphotyrosine and pY-peptides as substrates.
On to `CSCC[C@H](NC(=O)[C@@H]1CCCN1C(=O)[C@H](CCSC)NC(=O)[C@H](Cc1ccc(OP(=O)(O)O)cc1)NC(=O)[C@H](CC(=O)O)NC(=O)CNC(=O)[C@H](CC(N)=O)NC(=O)CN)C(=O)N[C@@H](CO)C(=O)N1CCC[C@H]1C(=O)N[C@@H](CCCCN)C(=O)N[C@@H](CO)C(=O)O` [IRS-1(pY628), GNGDpYMPMSPKS] (H-GNGD[pY]MPMSPKS-OH), for which the Km came out at 100 µM.
The same measure, in the same setting: next, `CSCC[C@H](NC(=O)[C@@H]1CCCN1C(=O)[C@H](CCSC)NC(=O)[C@H](Cc1ccc(OP(=O)(O)O)cc1)NC(=O)CNC(=O)[C@H](CC(=O)O)NC(=O)[C@H](CC(=O)O)NC(=O)[C@@H](N)[C@@H](C)O)C(=O)N[C@@H](CO)C(=O)N1CCC[C@H]1C(=O)NCC(=O)N[C@H](C(=O)O)C(C)C` [IRS-1(pY608), TDDGpYMPMSPGV] (H-TDDG[pY]MPMSPGV-OH): 30 µM; `C[C@@H](O)[C@H](N)C(=O)N[C@@H](CCC(=O)O)C(=O)N1CCC[C@H]1C(=O)N[C@@H](CCC(=O)O)C(=O)N[C@@H](Cc1ccc(OP(=O)(O)O)cc1)C(=O)N[C@@H](CCC(N)=O)C(=O)N1CCC[C@H]1C(=O)NCC(=O)N[C@@H](CCC(=O)O)C(=O)O` [pp60^c-src (pYS27), TEPEpYQPGE] (H-TEPE[pY]QPGE-OH): 8 µM; `CC[C@H](C)[C@H](NC(=O)[C@H](CC(=O)O)NC(=O)[C@@H](N)CCCNC(=N)N)C(=O)N[C@@H](Cc1ccc(O)cc1)C(=O)N[C@@H](CCC(=O)O)C(=O)N[C@H](C(=O)N[C@@H](CC(=O)O)C(=O)N[C@@H](Cc1ccc(O)cc1)C(=O)N[C@@H](Cc1ccc(OP(=O)(O)O)cc1)C(=O)N[C@@H](CCCNC(=N)N)C(=O)N[C@@H](CCCCN)C(=O)O)[C@@H](C)O` [IR1155-1165(pY1163), RDIYETDYpYRK] (H-RDIYETDY[pY]RK-OH): 30 µM.
The same measure, in the same setting: the same measure for `CC[C@H](C)[C@H](NC(=O)[C@H](CCC(N)=O)NC(=O)[C@@H]1CCCN1C(=O)[C@H](C)NC(=O)[C@H](CCSC)NC(=O)[C@@H]1CCCN1C(=O)[C@H](CCSC)NC(=O)[C@H](Cc1ccc(OP(=O)(O)O)cc1)NC(=O)[C@H](CCC(=O)O)NC(=O)[C@H](CC(N)=O)NC(=O)[C@H](CCC(=O)O)NC(=O)[C@@H](N)CCCNC(=N)N)C(=O)N[C@@H](Cc1c[nH]cn1)C(=O)O` [middle t(pY298), RENEpYMPMAPQIH] (H-RENE[pY]MPMAPQIH-OH): less than 2 µM.
With `CC[C@H](C)[C@H](NC(=O)[C@H](CC(=O)O)NC(=O)[C@@H](N)CCCNC(=N)N)C(=O)N[C@@H](Cc1ccc(O)cc1)C(=O)N[C@@H](CCC(=O)O)C(=O)N[C@H](C(=O)N[C@@H](CC(=O)O)C(=O)N[C@@H](Cc1ccc(OP(=O)(O)O)cc1)C(=O)N[C@@H](Cc1ccc(O)cc1)C(=O)N[C@@H](CCCNC(=N)N)C(=O)N[C@@H](CCCCN)C(=O)O)[C@@H](C)O` [IR1155-1165(pY1162), RDIYETDpYYRK] (H-RDIYETD[pY]YRK-OH), the Km was found to be 40 µM.
Regarding `CC[C@H](C)[C@H](NC(=O)[C@H](CC(=O)O)NC(=O)[C@@H](N)CCCNC(=N)N)C(=O)N[C@@H](Cc1ccc(OP(=O)(O)O)cc1)C(=O)N[C@@H](CCC(=O)O)C(=O)N[C@H](C(=O)N[C@@H](CC(=O)O)C(=O)N[C@@H](Cc1ccc(O)cc1)C(=O)N[C@@H](Cc1ccc(O)cc1)C(=O)N[C@@H](CCCNC(=N)N)C(=O)N[C@@H](CCCCN)C(=O)O)[C@@H](C)O` [1R1155-1165(pY1158), RDIpYETDYYRK] (H-RDI[pY]ETDYYRK-OH), the Michaelis constant (Km) amounted to 30 µM.
The same measure, in the same setting: the same measure for `CC[C@H](C)[C@H](NC(=O)[C@H](CO)NC(=O)[C@H](CCC(=O)O)NC(=O)[C@H](CC(=O)O)NC(=O)[C@@H](N)CCCCN)C(=O)N[C@@H](CC(=O)O)C(=O)N[C@@H](Cc1ccc(OP(=O)(O)O)cc1)C(=O)N[C@H](C(=O)N1CCC[C@H]1C(=O)N[C@@H](CCSC)C(=O)N[C@@H](CC(C)C)C(=O)N[C@@H](CC(=O)O)C(=O)N[C@@H](CCSC)C(=O)N[C@@H](CCCCN)C(=O)NCC(=O)N[C@@H](CC(=O)O)C(=O)O)C(C)C` [mPDGF-Rβ(pY719), KDESIDpYVPMLDMKGD] (H-KDESID[pY]VPMLDMKGD-OH): 8 µM.

The term Kd denotes the equilibrium constant for the complex coming apart. High values mean weaker binding, low ones tighter binding. One may read the IC50 as the concentration that gives 50% inhibition. Low values mean inhibition by little substance, high ones a need for much substance. By Ki is commonly meant a dissociation constant, usually derived from enzyme kinetics or from competition with a known ligand. A higher Ki goes with weaker binding. What is called Km is the substrate concentration at which the rate is half of its maximum.

(Values after US5801149A, “Inhibition of signal transduction molecules” (Joslin D-abetes Center, Inc., priority 1995, dated 1998).)
